{
  "source": "patent US20250163104A1",
  "about": "“MACROCYCLIC IMMUNOMODULATORS” (priority 2021, published 2025)",
  "note": "Where a SMILES comes first, the peptide text is derived from it. Bridges are numbered along the chain shown (N, C = ends). [ ]: non-standard residue; d: D form. The star is where a group is joined. ξ: configuration not given here. Phe(4-COOH) = N[C@@H](Cc1ccc(C(=O)O)cc1)C(=O)O; Bip = N[C@@H](Cc1ccc(-c2ccccc2)cc1)C(=O)O; Phe(3-Me) = Cc1cccc(C[C@H](N)C(=O)O)c1; 4Pal = N[C@@H](Cc1ccncc1)C(=O)O; Cit = NC(=O)NCCC[C@H](N)C(=O)O; Carboxymethyl = O=C(O)C*; Orn = NCCC[C@H](N)C(=O)O; Dab = NCC[C@H](N)C(=O)O; Dap = NC[C@H](N)C(=O)O; ξA = CC(N)C(=O)O",
  "data": [
    {"target": "T1, human PD-1 / PD-L1-Ig binding on Jurkat cell line over-expressing human PD-1 (Jurkat-PD-1) (Homo sapiens, UniProt Q15116)", "T1 construct": "expressed in transfected cells; host or cells: Jurkat", "T1 sequence (Q15116 25-288)": "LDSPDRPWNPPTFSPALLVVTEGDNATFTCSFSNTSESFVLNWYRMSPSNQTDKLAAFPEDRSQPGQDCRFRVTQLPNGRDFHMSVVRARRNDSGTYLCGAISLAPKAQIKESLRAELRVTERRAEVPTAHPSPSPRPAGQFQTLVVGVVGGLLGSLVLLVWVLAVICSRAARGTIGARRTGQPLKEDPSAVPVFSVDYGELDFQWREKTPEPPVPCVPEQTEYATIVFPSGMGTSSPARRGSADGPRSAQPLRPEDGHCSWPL", "test": "Jurkat-PD-1 Cell Binding High-Content Screening Assay (CBA)", "assay_type": "cell-based", "conditions": "Jurkat-PD-1 cells, PE-labeled PD-L1-Ig 20 nM final; read-out: Jurkat HPD1_PDL1 IC50", "summary_of_the_method": "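Read-out: high-content imaging of PE-tagged PD-L1-Ig bound to Jurkat cells overexpressing human PD-1, after fixation with 4% paraformaldehyde and Hoechst 33342 nuclear staining. Ligand was used at 20 nM final for 1 hour, after a 2 h compound exposure at 37° C in serum-containing DMEM.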", "units": {"IC50": "µM"}, "values": [
      {"smiles": "CC(C)C[C@@H]1NC(=O)[C@H](Cc2c[nH]c3ccccc23)NC(=O)[C@H](CC(=O)O)NC(=O)[C@H](Cc2ccc(O)cc2)NC(=O)[C@H](Cc2ccccc2)NC(=O)CSC[C@@H](C(=O)N[C@@H](C)C(N)=O)NC(=O)[C@H](CO)NC(=O)[C@H](C(C)C)NC(=O)[C@H](CC(C)C)NC(=O)[C@H](CCN)NC(=O)[C@@H](CC(C)C)NC(=O)[C@H](CCN)NC(=O)[C@H](CCCNC(N)=O)NC(=O)[C@H](Cc2ccc(-c3ccccc3)cc2)NC1=O", "note": "[Compound 1228] ({CH2CO}-FYDWL[Bip][Cit][Dab][dL][Dab]LVSCA-NH2; thioether N-14)", "IC50": 0.0175},
      {"smiles": "CC(C)C[C@@H]1NC(=O)[C@H](Cc2c[nH]c3ccccc23)NC(=O)[C@H](CC(=O)O)NC(=O)[C@H](Cc2ccc(O)cc2)NC(=O)[C@H](Cc2ccccc2)NC(=O)CSC[C@@H](C(=O)N[C@@H](C)C(N)=O)NC(=O)[C@H](CO)NC(=O)[C@H](C(C)C)NC(=O)[C@H](CC(C)C)NC(=O)[C@H](CCN)NC(=O)[C@@H](CC(C)C)NC(=O)[C@H](CCN)NC(=O)[C@H](CCC(=O)O)NC(=O)[C@H](Cc2ccc(-c3ccccc3)cc2)NC1=O", "note": "[Compound 1229] ({CH2CO}-FYDWL[Bip]E[Dab][dL][Dab]LVSCA-NH2; thioether N-14)", "IC50": 0.0145},
      {"smiles": "CC[C@H](C)[C@@H]1NC(=O)[C@H](Cc2ccc(-c3ccccc3)cc2)NC(=O)[C@H](CC(C)C)NC(=O)[C@H](Cc2c[nH]c3ccccc23)NC(=O)[C@H](CC(=O)O)NC(=O)[C@H](Cc2ccc(O)cc2)NC(=O)[C@H](Cc2ccccc2)NC(=O)CSC[C@@H](C(=O)NCC(N)=O)NC(=O)[C@H](CO)NC(=O)[C@H](C(C)C)NC(=O)[C@H](CC(C)C)NC(=O)[C@H](CCN)NC(=O)[C@@H](CC(C)C)NC(=O)[C@H](CCCN)NC1=O", "note": "[Compound 1230] ({CH2CO}-FYDWL[Bip]I[Orn][dL][Dab]LVSCG-NH2; thioether N-14)", "IC50": 0.0181},
      {"smiles": "CC(C)C[C@@H]1NC(=O)[C@H](Cc2c[nH]c3ccccc23)NC(=O)[C@H](CC(=O)O)NC(=O)[C@H](Cc2ccc(O)cc2)NC(=O)[C@H](Cc2ccccc2)NC(=O)CSC[C@@H](C(=O)N[C@@H](C)C(N)=O)NC(=O)[C@H](CO)NC(=O)[C@H](C(C)C)NC(=O)[C@H](CC(C)C)NC(=O)[C@H](CC(N)=O)NC(=O)[C@@H](CC(C)C)NC(=O)[C@H](CCCN)NC(=O)[C@H](CCCNC(N)=O)NC(=O)[C@H](Cc2ccc(-c3ccccc3)cc2)NC1=O", "note": "[Compound 1234] ({CH2CO}-FYDWL[Bip][Cit][Orn][dL]NLVSCA-NH2; thioether N-14)", "IC50": 0.0366},
      {"smiles": "CC(C)C[C@@H]1NC(=O)[C@H](Cc2c[nH]c3ccccc23)NC(=O)[C@H](CC(=O)O)NC(=O)[C@H](Cc2ccc(O)cc2)NC(=O)[C@H](Cc2ccccc2)NC(=O)CSC[C@@H](C(=O)N[C@@H](C)C(N)=O)NC(=O)[C@H](CO)NC(=O)[C@H](C(C)C)NC(=O)[C@H](CC(C)C)NC(=O)[C@H](CC(N)=O)NC(=O)[C@@H](CC(C)C)NC(=O)[C@H](CCCN)NC(=O)[C@H](CCC(=O)O)NC(=O)[C@H](Cc2ccc(-c3ccccc3)cc2)NC1=O", "note": "[Compound 1235] ({CH2CO}-FYDWL[Bip]E[Orn][dL]NLVSCA-NH2; thioether N-14)", "IC50": 0.021},
      {"smiles": "CC(C)C[C@@H]1NC(=O)[C@H](CCN)NC(=O)[C@@H](CC(C)C)NC(=O)[C@H](CCCN)NC(=O)[C@H](C(C)C)NC(=O)[C@H](Cc2ccc(-c3ccccc3)cc2)NC(=O)[C@H](C(C)C)NC(=O)[C@H](Cc2c[nH]c3ccccc23)NC(=O)[C@H](CC(=O)O)NC(=O)[C@H](Cc2ccncc2)NC(=O)[C@H](CN)NC(=O)CSC[C@@H](C(=O)NC(C)C(N)=O)NC(=O)[C@H]([C@@H](C)O)NC(=O)[C@H](C(C)C)NC1=O", "note": "(stereo partly drawn) [Compound 1236] ({CH2CO}-[Dap][4Pal]DWV[Bip]V[Orn][dL][Dab]LVTC[ξA]-NH2; thioether N-14)", "IC50": 0.0174},
      {"smiles": "CC[C@H](C)[C@@H]1NC(=O)[C@H](Cc2ccc(-c3ccccc3)cc2)NC(=O)[C@H](C(C)C)NC(=O)[C@H](Cc2c[nH]c3ccccc23)NC(=O)[C@H](CC(=O)O)NC(=O)[C@H](Cc2ccncc2)NC(=O)[C@H](CN)NC(=O)CSC[C@@H](C(=O)N[C@@H](C)C(N)=O)NC(=O)[C@H]([C@@H](C)O)NC(=O)[C@H](C(C)C)NC(=O)[C@H](CC(C)C)NC(=O)[C@H](CCN)NC(=O)[C@@H](CC(C)C)NC(=O)[C@H](CCCN)NC1=O", "note": "[Compound 1238] ({CH2CO}-[Dap][4Pal]DWV[Bip]I[Orn][dL][Dab]LVTCA-NH2; thioether N-14)", "IC50": 0.015},
      {"smiles": "Cc1cccc(C[C@@H]2NC(=O)[C@H](CC(=O)O)NC(=O)[C@H](Cc3ccncc3)NC(=O)[C@H](CN)NC(=O)CSC[C@@H](C(=O)N[C@@H](C)C(N)=O)NC(=O)[C@H]([C@@H](C)O)NC(=O)[C@H](C(C)C)NC(=O)[C@H](CC(C)C)NC(=O)[C@H](CCN)NC(=O)[C@@H](CC(C)C)NC(=O)[C@H](CCCN)NC(=O)[C@H](CCCNC(N)=O)NC(=O)[C@H](Cc3ccc(-c4ccccc4)cc3)NC(=O)[C@H](C(C)C)NC2=O)c1", "note": "[Compound 1239] ({CH2CO}-[Dap][4Pal]D[Phe(3-Me)]V[Bip][Cit][Orn][dL][Dab]LVTCA-NH2; thioether N-14)", "IC50": 0.0143},
      {"smiles": "CC(C)C[C@@H]1NC(=O)[C@H](CCN)NC(=O)[C@@H](CC(C)C)NC(=O)[C@H](CCCN)NC(=O)[C@H](CCCNC(N)=O)NC(=O)[C@H](Cc2ccc(-c3ccccc3)cc2)NC(=O)[C@H](C(C)C)NC(=O)[C@H](Cc2c[nH]c3ccccc23)NC(=O)[C@H](CC(=O)O)NC(=O)[C@H](Cc2ccncc2)NC(=O)[C@H](CN)NC(=O)CSC[C@@H](C(=O)N[C@@H](C)C(N)=O)NC(=O)[C@H]([C@@H](C)O)NC(=O)[C@H](C(C)C)NC1=O", "note": "[Compound 1240] ({CH2CO}-[Dap][4Pal]DWV[Bip][Cit][Orn][dL][Dab]LVTCA-NH2; thioether N-14)", "IC50": 0.119},
      {"smiles": "CC(C)C[C@@H]1NC(=O)[C@H](CCN)NC(=O)[C@@H](CC(C)C)NC(=O)[C@H](CCCN)NC(=O)[C@H](CCCNC(N)=O)NC(=O)[C@H](Cc2ccc(-c3ccccc3)cc2)NC(=O)[C@H](C(C)C)NC(=O)[C@H](Cc2c[nH]c3ccccc23)NC(=O)[C@H](CC(=O)O)NC(=O)[C@H](Cc2ccc(OCC(=O)O)cc2)NC(=O)[C@H](CN)NC(=O)CSC[C@@H](C(=O)N[C@@H](C)C(N)=O)NC(=O)[C@H]([C@@H](C)O)NC(=O)[C@H](C(C)C)NC1=O", "note": "[Compound 1241] ({CH2CO}-[Dap]Y(Carboxymethyl)DWV[Bip][Cit][Orn][dL][Dab]LVTCA-NH2; thioether N-14)", "IC50": 0.0278},
      {"smiles": "CC(C)C[C@@H]1NC(=O)[C@H](CCN)NC(=O)[C@@H](CC(C)C)NC(=O)[C@H](CCCN)NC(=O)[C@H](CCCNC(=N)N)NC(=O)[C@H](Cc2ccc(-c3ccccc3)cc2)NC(=O)[C@H](C(C)C)NC(=O)[C@H](Cc2c[nH]c3ccccc23)NC(=O)[C@H](CC(=O)O)NC(=O)[C@H](Cc2ccc(OCC(=O)O)cc2)NC(=O)[C@H](Cc2ccncc2)NC(=O)CSC[C@@H](C(=O)N[C@@H](C)C(N)=O)NC(=O)[C@H]([C@@H](C)O)NC(=O)[C@H](C(C)C)NC1=O", "note": "[Compound 1242] ({CH2CO}-[4Pal]Y(Carboxymethyl)DWV[Bip]R[Orn][dL][Dab]LVTCA-NH2; thioether N-14)", "IC50": 0.0289},
      {"smiles": "CC(C)C[C@@H]1NC(=O)[C@H](CCN)NC(=O)[C@@H](CC(C)C)NC(=O)[C@H](CCCN)NC(=O)[C@H](CCCNC(=N)N)NC(=O)[C@H](Cc2ccc(-c3ccccc3)cc2)NC(=O)[C@H](C(C)C)NC(=O)[C@H](Cc2c[nH]c3ccccc23)NC(=O)[C@H](CC(=O)O)NC(=O)[C@H](Cc2ccc(C(=O)O)cc2)NC(=O)[C@H](Cc2ccc(OCC(=O)O)cc2)NC(=O)CSC[C@@H](C(=O)N[C@@H](C)C(N)=O)NC(=O)[C@H]([C@@H](C)O)NC(=O)[C@H](C(C)C)NC1=O", "note": "[Compound 1243] ({CH2CO}-Y(Carboxymethyl)[Phe(4-COOH)]DWV[Bip]R[Orn][dL][Dab]LVTCA-NH2; thioether N-14)", "IC50": 0.0429},
      {"smiles": "CC(C)C[C@@H]1NC(=O)[C@H](CCN)NC(=O)[C@@H](CC(C)C)NC(=O)[C@H](CCCN)NC(=O)[C@H](CCCNC(=N)N)NC(=O)[C@H](Cc2ccc(-c3ccccc3)cc2)NC(=O)[C@H](C(C)C)NC(=O)[C@H](Cc2c[nH]c3ccccc23)NC(=O)[C@H](CC(=O)O)NC(=O)[C@H](Cc2ccncc2)NC(=O)[C@H](CN)NC(=O)CSC[C@@H](C(=O)N[C@@H](C)C(N)=O)NC(=O)[C@H]([C@@H](C)O)NC(=O)[C@H](C(C)C)NC1=O", "note": "[Compound 1244] ({CH2CO}-[Dap][4Pal]DWV[Bip]R[Orn][dL][Dab]LVTCA-NH2; thioether N-14)", "IC50": 0.0223},
      {"smiles": "CC(C)C[C@@H]1NC(=O)[C@H](CCN)NC(=O)[C@@H](CC(C)C)NC(=O)[C@H](CCCN)NC(=O)[C@H](C(C)C)NC(=O)[C@H](Cc2ccc(-c3ccccc3)cc2)NC(=O)[C@H](C(C)C)NC(=O)[C@H](Cc2c[nH]c3ccccc23)NC(=O)[C@H](CC(=O)O)NC(=O)[C@H](Cc2ccc(OCC(=O)O)cc2)NC(=O)[C@H](Cc2ccc(OCC(=O)O)cc2)NC(=O)CSC[C@@H](C(=O)N[C@@H](C)C(N)=O)NC(=O)[C@H]([C@@H](C)O)NC(=O)[C@H](C(C)C)NC1=O", "note": "[Compound 1245] ({CH2CO}-Y(Carboxymethyl)Y(Carboxymethyl)DWV[Bip]V[Orn][dL][Dab]LVTCA-NH2; thioether N-14)", "IC50": 0.0208},
      {"smiles": "CC(C)C[C@@H]1NC(=O)[C@H](CCN)NC(=O)[C@@H](CC(C)C)NC(=O)[C@H](CCCN)NC(=O)[C@H](Cc2ccc(-c3ccccc3)cc2)NC(=O)[C@H](Cc2ccc(-c3ccccc3)cc2)NC(=O)[C@H](C(C)C)NC(=O)[C@H](Cc2c[nH]c3ccccc23)NC(=O)[C@H](CC(=O)O)NC(=O)[C@H](Cc2ccc(OCC(=O)O)cc2)NC(=O)[C@H](Cc2ccc(OCC(=O)O)cc2)NC(=O)CSC[C@@H](C(=O)N[C@@H](C)C(N)=O)NC(=O)[C@H]([C@@H](C)O)NC(=O)[C@H](C(C)C)NC1=O", "note": "[Compound 1246] ({CH2CO}-Y(Carboxymethyl)Y(Carboxymethyl)DWV[Bip][Bip][Orn][dL][Dab]LVTCA-NH2; thioether N-14)", "IC50": 0.0844}
    ]}
  ]
}
